The values that follow come from US20100166854A1, “ELECTROSPUN MATRICES FOR DELIVERY OF HYDROPHILIC AND LIPOPHILIC COMPOUNDS” (priority 2006, published 2010).

Where a name gives a salt, the structure may show the parent alone.

Data set [1] in a line: Drug release from electrospun PLGA or PLLA fibers in Franz diffusion cells (Example 2). Format: physicochemical. The conditions noted are these: PBS 37° C. The method, then:
Poly(lactide-co-glycolide) (50:50) (PLGA) or poly(L-lactide) (PLLA) was dissolved in hexafluoroisopropanol (HFIP) and gently shaken for 3 hours till the polymer was completely dissolved. To this a solution of LH or mupirocin in HFIP was slowly added without any visible precipitation and shaken. The homogeneous drug/polymer solution was then electrospun as per the following parameters on a rotating mandrel. Differential Scanning Calorimetry (DSC) was conducted on the fibers to study drug inclusion. The dried scaffolds were sectioned into uniform weight discs and placed into Franz diffusion cells (Permegear Inc., Bethlehem, Pa.) with phosphate buffered saline at 37° C. rotated at 600 rpm. Samples were withdrawn at specific times and analyzed by HPLC. An equivalent amount of fresh PBS was replaced each time.

The test system of data set [2] is mupirocin-sensitive bacteria. The conditions noted are these: all the strains of mupirocin-sensitive bacteria; cited from earlier work.
For data set [3], the system named is Staphylococcus aureus ATCC 25923. The conditions noted are these: 5 μg mupirocin disc, interpretative criteria; cited from earlier work.

For the molecule `CCN(CC)CC(=O)Nc1c(C)cccc1C` [LH, Lidocaine hydrochloride], the LH released in data set [1] (within 48 hrs, PLGA 20% fibers, LH 100% w/v of polymer) is recorded as 92%. In data set [1] (within the first hour, PLGA 20% fibers, LH 100% w/v of polymer), the LH burst release amounted to 80%.

Broadly, the MIC is the smallest concentration in the dilution series that meets the test's criterion for growth inhibition. `C/C(=C\C(=O)OCCCCCCCCC(=O)O)C[C@@H]1OC[C@H](C[C@@H]2O[C@H]2[C@@H](C)[C@H](C)O)[C@@H](O)[C@H]1O` [mupirocin]: the MIC in data set [2] was 0.06 to 0.5 µg/mL. Further, in data set [3], the “zone diameter considered acceptable” value is listed as 22 to 27 mm. In data set [1] (in the next 72 hours, PLLA 15% fibers, mupirocin 25% w/v of polymer), the mupirocin cumulative release was found to be 70 wt %. Moreover, the “mupirocin initial burst release” value in data set [1] (within an hour, PLLA 15% fibers, mupirocin 25% w/v of polymer) stood at 36 wt %.
